Where two headings read alike, the source gives them in different places. Each block holds one compound with its values, some of them ahead of it.
Tests used:
[1] = In vivo SPECT study of cerebral blood flow in rabbits; set-up: species or system rabbits (New Zealander); settings: for contrast [brain/background]: rabbit SPECT, 8 minutes p.i., 15 minutes p.i.; for contrast [brain/background] / cerebral uptake: HM-PAO 59 MBq, cytectrene 14 MBq; for cerebral uptake: rabbit, i.v., test from 8 minutes p.i., from 15 minutes p.i., 2400 seconds
Protocol: In an in vivo study on rabbits (New Zealander, breeding by Schering AG Berlin, approximately 4 kg, male), the cerebral blood flow of commercially available HM-PAO was compared with the N-methyl-piperidin-4-ol-cytectrenecarboxylic acid ester (produced analogously to example 6).
The study was made with a SPECT camera of Apex 409 type.
After nembutal anesthesia, the animal was intravenously administered 1 ml of an isotonic, aqueous, sterile solution of ^99m Tc-HMPAO or said cytectrene derivative.
The recording technique and the results are described by the following table.

[2] = 99mTc concentration in rat brain and brain/blood concentration quotient (FIGS. 2 and 3); format: in vivo
Protocol: FIG. 2 graphically illustrates the results of tests on ^99m Tc concentration in the brain (% dose/% weight). In the experiments, the rats (n=4) intravenously received about 5 μCi of the Tc-99-labeled ester dissolved in 0.1 ml of EtOH/0.9% NaCl per animal. The esters, i.e., 4-pip-ester, 3-pip-ester and quin.-ester, were obtained from cytectrene-carboxylic acid and the following, respectively: 4-hydroxy-N-(methyl)-piperidine, 3-hydroxy-N-(methyl)-piperidine and 3-quinuclidinol. 15 minutes after HM-PAO administration, the brain concentration is at 1.7% dose/% weight. […] The rats (n=4) intravenously received about 5 μCi of the Tc-99-labeled ester dissolved in 0.1 ml of EtOH/0.9% NaCl per animal. The esters tested were obtained from cytectrenecarboxylic acid and 4-hydroxy-N-(methyl)-piperidine, 3-hydroxy-N-(methyl)-piperidine and 3-quinuclidinol, respectively. 15 minutes after HM-PAO administration, the brain/blood quotient is at 1.5:1.

[3] = Organ distribution in mice of 99mTc-acetylcymantrene; format: in vivo
Protocol: (§1) The organ distributions in mice and rats as well as partially in rabbits were tested by the technetium-labeled cytectrene derivatives. The organ distribution of the ^99m Tc-labeled cytectrene derivatives is a function of the substituent on the cyclopentadienyl ring system.

[4] = Chemical stability, decomposition by chromatography; format: physicochemical; settings: after 24 hours, chromatographically
Text: This lipophilic ^99m Tc-compound can be obtained in pure form by elution of the corresponding silica gel fraction (RF =0.36), e.g., with ethanol. The radiochemical purity is established by rechromatography of the eluate.

[5] = clinical use, because of insufficient stability; cited from earlier work
[6] = cited from earlier work
[7] = Organ distribution of Tc-labeled cytectrene derivatives vs pertechnetate (FIG. 1); format: in vivo, mice and rats, partially rabbits; settings: pertechnetate for comparison
Protocol: as §1
FIG. 1 indicates the organ distribution of various cytectrene derivatives. For comparison, the organ distribution of pertechnetate was also recorded in this table. From the organ concentrations, it can clearly be recognized that the organ distribution of the cytectrene derivatives drastically differs from the distribution after administration of pertechnetate. With pertechnetate, the organ with the highest radioactivity concentration is blood (2.6% of dose/% body weight). On the other hand, the ^99m Tc cytectrene derivatives show a pronounced affinity for other, respectively different organs. The affinity for the individual organ is clearly dependent on the side chain of the cytectrene compound.

cerebral uptake [1]: 7.5 % of the administered activity
concentration ratio of brain/blood, improvement factor over HM-PAO ([2]; compared with HM-PAO complexes): ~10 factor
Compound: cyclopentadienylcarboxylic acid-(N-methyl-piperidinol)-4-ester-^99m technetium-tricarbonyl complex
contrast [brain/background] [1]: 0.98
visual delimitability of the brain in SPECT tests ([1]; rabbits, 14 MBq, compared with HM-PAO complex): more clearly visual delimitability of the brain in SPECT tests
concentration in the brain ([2]; i.v., about 5 μCi): about 4 % dose/% body weight

Compound: CC(=O)[C]1([Tc](=[C]=O)(=[C]=O)=[C]=O)C=CC=C1 [Example 1a, Tc-99m Acetyl-cytectrene]
organ distribution [3]: preferred concentration in liver and suprarenal glands
chemical stability of the labeled compound [4]: chemically stable, since after 24 hours, no decomposition is chromatographically detectable
chemical stability of the labeled compound ([4]; listed as Example 1b): chemically stable, after 24 hours, no decomposition is chromatographically detectable

cerebral uptake [1]: 5.9 % of the administered activity
Compound: C/C(=N\O)C(C)NCC(C)(C)CNC(C)/C(C)=N/O (centres unmarked) [HM-PAO, hexamethyl-propylenamine oxime]
contrast [brain/background] [1]: 0.98
time after labeling within which it has to be administered [5]: ≤ 30 min
concentration in the brain ([6]; comparable measurements for known compounds, L. Bacciottini et al. 1990): around 1.7 % dose/% body weight
99mTc concentration in the brain ([6]; rat, 15 minutes after HM-PAO administration): 1.7 % dose/% weight

Compound: [O]=[99Tc](=[O])(=[O])[O-] [pertechnetate, ^99m Tc-pertechnetate]
radioactivity concentration in blood (organ with the highest concentration) [7]: 2.6 % of dose/% body weight
